Laboratory results: patent US9290473B2, “Inhibitors of phosphatidylinositol-3-kinase (PI3) and inducers of nitric oxide (NO)” (COUCIL OF SCIENTIFIC & INDUSTRIAL RESEARCH, priority 2009, dated 2016)

Legend:
normal human PBMC = assay: Apoptosis/necrosis of normal human PBMC by flow cytometry; format: cell-based; details: 30 μM, 24 hours
Method: FIG. 2C indicates flow cytometric determination of apoptosis and necrosis of normal human PBMC by Compound 1 (30 μM) and Compound 7 (30 μM) after incubation for 24 hours.

PI3/Akt pathway = assay: Activation of PI3/Akt pathway in MIA PaCa 2 cells (Western blot of Akt phosphorylation); format: cell-based, human; details: 30 μM, 24 hr, reversed by cPTIO 25 μM
Method: MIA PaCa 2 cells were pretreated with NAC (5 mM), cPTIO (25 μM), PI3K inhibitor LY294002 (10 μM) for 3 hr followed by treatment with Compound 1 (30 μM) for 24 hr. Whole cell lysates were prepared and the phosphorylation status and protein expression of Akt were analyzed by Western blot. Cells were also treated with medium alone, Compound 1 (30 μM), c-PTIO (nitric oxide scavenger; 25 μM) or compound 1 plus c-PTIO for 24 hr.

MCF-7 xenografts = assay: Human breast adenocarcinoma (MCF-7) xenograft in nude mice; format: in vivo; details: 100 mg/kg body weight oral twice a day for 10 days
Method: MCF-7 cells were suspended to 5×10^7 cells/ml in Matrigel (BD Biosciences; 1 volume of cells with 1 volume of cold Matrigel). Nude female mice of 6 to 7 weeks of age (National Institute of Nutrition, Hyderabad, India) were injected with 0.2 ml of this cell suspension. Animals were left untreated until MCF-7 xenografts reached 200-300 mm^3.
Compound 1 (100 mg/kg body weight) or vehicle control were administered via oral route twice a day for 10 days (5 mice per group).

SMILES: C=CCc1ccc(O)c(O)c1 [Compound 1, 4-allyl-benzene-1,2-diol]
- Apoptosis and necrosis of normal human PBMC by flow cytometry (normal human PBMC): remained unaffected
- Effect on activation of PI3/Akt pathway (PI3/Akt pathway): inhibitis the activation of PI3/Akt pathway
- In vivo efficacy in MCF-7 xenografts (MCF-7 xenografts): further confirmed
